The values that follow come from ChEMBL document CHEMBL1201862, “PubChem BioAssay data set” (2004).

Test systems include SK-MEL-5; NCI/ADR-RES; RXF 393; UO-31; OVCAR-5; Hs-578T; NCI-H460; KM12; SK-MEL-28; UACC-62; SF-539; SW-620; NCI-H23; K562; OVCAR-8; MDA-N; HT-29; MDA-MB-231; A498; COLO 205.
What all share (assay): DTP human tumour cell line panel, 48 h

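Values below derive from 48-hour exposures of cells grown in 96-well plates, with endpoints linearly interpolated between the two concentrations bracketing the appropriate inhibition level. GI50 marks 50% less growth.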 Calls of active or inactive are those of the source. Rule as the data show it: active = GI50 up to about 1.1 µM and inactive = higher.

Take `O=C1N[C@H]2c3c(Cl)sc(Cl)c3C(=O)[C@H]2O1`: the GI50 (as a rule, the concentration at which growth is held to half of that of the control) with SK-MEL-5 was 24 µM (inactive); with NCI/ADR-RES, 15.5 µM (inactive); in the assay with RXF 393 it was 25.6 µM (inactive); in the assay on UO-31 it was 19.1 µM (inactive); with OVCAR-5, 22.1 µM (inactive); with Hs-578T it was 17.9 µM (inactive). In addition, the GI50 was 8.89 µM (inactive) with NCI-H460; 39.1 µM (inactive) in the assay with KM12; 6.79 µM (inactive) in the assay with SK-MEL-28; 19.1 µM (inactive) in the assay on UACC-62; 9.68 µM (inactive) in the assay with SF-539; 2.84 µM (inactive) in the assay with SW-620. In addition, the GI50 in the assay with NCI-H23 is 10.5 µM (inactive); in the assay with K562, 2.99 µM (inactive); in the assay on OVCAR-8 it was 4.31 µM (inactive); in the assay on MDA-N it was 24 µM (inactive); in the assay on HT-29 it was 4.38 µM (inactive); in the assay on MDA-MB-231, 25.6 µM (inactive). For the same compound, the results for the GI50 in the assay with A498 and in the assay with COLO 205 were 20.2 µM (inactive) and 14 µM (inactive), respectively.
In the case of `c1cc(-c2sc(-c3ccncc3)c(-c3ccncc3)c2-c2ccncc2)ccn1`, the GI50 is 14.7 µM (inactive) in the assay on SK-MEL-5; 22.9 µM (inactive) in the assay with NCI/ADR-RES; 16.3 µM (inactive) in the assay with RXF 393; 12.6 µM (inactive) with UO-31; 19.7 µM (inactive) with OVCAR-5; 22.3 µM (inactive) with Hs-578T. Also, the GI50 with NCI-H460 is 10.8 µM (inactive); in the assay on KM12, 26 µM (inactive); in the assay with SK-MEL-28, 19.6 µM (inactive); in the assay on UACC-62, 14.1 µM (inactive); in the assay on SF-539 it was 12.5 µM (inactive); with SW-620, 17 µM (inactive). For the same compound, the GI50 in the assay with NCI-H23 is 16.1 µM (inactive); with K562, 28.2 µM (inactive); in the assay on OVCAR-8, 24.4 µM (inactive); with MDA-N it was 13.8 µM (inactive); in the assay on HT-29, 13.6 µM (inactive); in the assay on MDA-MB-231, 15.1 µM (inactive). Also, the values for the GI50 in the assay on A498 and in the assay with COLO 205 were 12.5 µM (inactive) and 12.8 µM (inactive), respectively.
For the compound `C=C/C(C)=C\CC1[C@](C)(O)CC[C@H]2C(C)(C)C(O)CC[C@]12C` (stereo not given in full), the GI50 in the assay on SK-MEL-5 was 84.1 µM (inactive); with NCI/ADR-RES, > 100 µM (inactive); in the assay with RXF 393, 95.1 µM (inactive); in the assay with UO-31 it was > 100 µM (inactive); with OVCAR-5 it was > 100 µM (inactive); in the assay with Hs-578T, > 100 µM (inactive). Further, the GI50 in the assay with NCI-H460 is 78.2 µM (inactive); with KM12 it was > 100 µM (inactive); in the assay with SK-MEL-28 it was > 100 µM (inactive); with UACC-62 it was > 100 µM (inactive); in the assay with SF-539, > 100 µM (inactive); in the assay with SW-620, > 100 µM (inactive). Besides, the GI50 with NCI-H23 is 55.8 µM (inactive); with K562, 34.4 µM (inactive); in the assay on OVCAR-8, > 100 µM (inactive); in the assay on MDA-N, > 100 µM (inactive); in the assay on HT-29 it was 44.3 µM (inactive); in the assay with MDA-MB-231 it was > 100 µM (inactive). Also, the GI50 with A498 and in the assay with COLO 205 was > 100 µM (inactive) each time.
`c1ccc2c(c1)N=c1ccccc1=P21c2ccccc2Nc2ccccc21`: the GI50 was 0.188 µM (active) in the assay with SK-MEL-5; 76 µM (inactive) in the assay with NCI/ADR-RES; 0.438 µM (active) with RXF 393; 7.1 µM (inactive) in the assay on UO-31; 0.421 µM (active) in the assay with OVCAR-5; 0.382 µM (active) in the assay with Hs-578T. The GI50 was 0.186 µM (active) with NCI-H460; 0.132 µM (active) with KM12; 0.986 µM (active) in the assay with SK-MEL-28; 0.611 µM (active) in the assay on UACC-62; 0.619 µM (active) in the assay with SF-539; 0.405 µM (active) in the assay on SW-620. Moreover, the GI50 in the assay with NCI-H23 is 0.304 µM (active); with K562, 0.202 µM (active); with OVCAR-8, 0.521 µM (active); with MDA-N, 0.379 µM (active); in the assay on HT-29, 0.0724 µM (active); in the assay on MDA-MB-231, 2.69 µM (inactive). The figures for the GI50 in the assay with A498 and in the assay on COLO 205 were 0.581 µM (active) and 0.129 µM (active), respectively.
Take `N#Cc1c(-c2ccc([N+](=O)[O-])cc2)cc(-c2ccc(Nc3ccnc4cc(Cl)ccc34)cc2)nc1N`: the GI50 in the assay on SK-MEL-5 was 25.9 µM (inactive); in the assay with NCI/ADR-RES, 4.12 µM (inactive); in the assay with RXF 393, 17.4 µM (inactive); with UO-31 it was 26.5 µM (inactive); in the assay on OVCAR-5, 30.8 µM (inactive); in the assay with Hs-578T, 11.6 µM (inactive). The GI50 with NCI-H460 was 7.24 µM (inactive); in the assay on KM12 it was 2.38 µM (inactive); with SK-MEL-28 it was 6.25 µM (inactive); in the assay on UACC-62, 26.7 µM (inactive); with SF-539, 31.1 µM (inactive); with SW-620, > 21.7 µM (inactive). Moreover, the GI50 in the assay on NCI-H23 was 25.2 µM (inactive); with K562, 4.56 µM (inactive); in the assay with OVCAR-8, 2.19 µM (inactive); in the assay with MDA-N, 3.52 µM (inactive); in the assay on HT-29, 2.71 µM (inactive); with MDA-MB-231, 16.9 µM (inactive). In addition, the values for the GI50 with A498 and with COLO 205 were 26.2 µM (inactive) and 25.5 µM (inactive), respectively.
For `O=C(O)[C@@H]1C[C@@H](O)CN1`, the GI50 in the assay with SK-MEL-5, in the assay with NCI/ADR-RES, with RXF 393, in the assay on UO-31, in the assay with OVCAR-5 and in the assay on Hs-578T was > 100 µM (inactive) each time. Also, the GI50 in the assay with NCI-H460, in the assay with KM12, in the assay with SK-MEL-28, in the assay with UACC-62, with SF-539 and in the assay with SW-620 was > 100 µM (inactive) in each case. For the same compound, the GI50 in the assay on NCI-H23, in the assay on K562, in the assay on OVCAR-8, in the assay on MDA-N, in the assay with HT-29 and in the assay on MDA-MB-231 was > 100 µM (inactive) throughout. For the same compound, the GI50 with A498 and with COLO 205 was > 100 µM (inactive) in each case.
Turning to `C=CCNC1=C2C[C@@H](C)C[C@@H](OC)[C@H](OC(=O)CN)[C@H](C)/C=C(\C)[C@@H](OC(N)=O)[C@H](OC)/C=C\C=C(/C)C(=O)NC(=CC1=O)C2=O`, the GI50 with SK-MEL-5 was 0.476 µM (active); in the assay on NCI/ADR-RES, 36.1 µM (inactive); with RXF 393, 1.95 µM (inactive); in the assay on UO-31 it was 5.87 µM (inactive); with OVCAR-5 it was 6.25 µM (inactive); in the assay with Hs-578T, 7.73 µM (inactive). Moreover, the GI50 is 0.504 µM (active) in the assay with NCI-H460; 0.27 µM (active) with KM12; 2.05 µM (inactive) in the assay with SK-MEL-28; 0.381 µM (active) with UACC-62; 0.883 µM (active) in the assay on SF-539; 0.183 µM (active) with SW-620. In addition, the GI50 was 0.48 µM (active) with NCI-H23; 0.337 µM (active) in the assay on K562; 0.904 µM (active) in the assay on OVCAR-8; 0.223 µM (active) in the assay with MDA-N; 0.0406 µM (active) with HT-29; 3.71 µM (inactive) in the assay with MDA-MB-231. The GI50 is 0.74 µM (active) with A498 and 0.204 µM (active) in the assay with COLO 205.
